This note sets out measurements from patent US12139492B2 (Endotarget Inc., priority 2021, dated 2024).

What all share (format): cell-based
In one test the test system is Mino cells. Description: Antiproliferative effect, MTS cell viability assay, Mino cells. The note with it: Homo sapiens, MINO, Mino mantle cell lymphoma cells; read-out: IC50 (anti-proliferation) Mino cells. In outline: (§1)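 MTS read-out, A490 of formazan from metabolically active cells; compound 0–10 μM (0, 0.001, 0.01, 0.1, 1, 10 μM), 72 h exposure.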
(In general: Formazan colour is commonly taken as a measure of viable cells.)

The next test deals with JeKo-1 cells. The test can be described thus: Antiproliferative effect, MTS cell viability assay, JeKo-1 cells. The note with it: Homo sapiens; JeKo-1 mantle cell lymphoma cells; read-out: IC50 (anti-proliferation) JeKO-1 cells. In outline: as §1
The target in the next test is BTK (Homo sapiens, UniProt Q06187). Description: BTK degradation, DC50 and Dmax of Table 1 (cell line not given). Also noted: endogenous in cells. The following applies: for DC50: concentration giving 50% reduction of BTK expression level.
Chain of BTK (Q06187 whole entry): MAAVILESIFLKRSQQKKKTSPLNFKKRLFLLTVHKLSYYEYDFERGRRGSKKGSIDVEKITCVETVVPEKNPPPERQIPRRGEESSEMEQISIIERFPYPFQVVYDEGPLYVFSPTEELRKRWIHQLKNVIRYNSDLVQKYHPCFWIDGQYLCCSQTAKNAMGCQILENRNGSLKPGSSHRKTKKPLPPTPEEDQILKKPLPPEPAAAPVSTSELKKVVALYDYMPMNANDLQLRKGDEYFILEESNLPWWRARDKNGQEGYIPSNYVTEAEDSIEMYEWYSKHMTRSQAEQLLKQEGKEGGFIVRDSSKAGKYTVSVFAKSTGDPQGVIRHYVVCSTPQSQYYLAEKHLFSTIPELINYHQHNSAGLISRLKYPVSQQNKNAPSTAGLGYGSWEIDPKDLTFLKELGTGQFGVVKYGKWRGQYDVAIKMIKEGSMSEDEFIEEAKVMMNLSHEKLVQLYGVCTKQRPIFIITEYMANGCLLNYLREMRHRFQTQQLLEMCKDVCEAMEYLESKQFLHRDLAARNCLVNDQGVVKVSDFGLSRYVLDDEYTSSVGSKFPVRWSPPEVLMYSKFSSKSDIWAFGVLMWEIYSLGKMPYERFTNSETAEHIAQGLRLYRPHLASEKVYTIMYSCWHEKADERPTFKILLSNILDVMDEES

Regarding `Nc1ncnc2c1c(-c1ccc(Oc3ccccc3)cc1)nn2[C@@H]1CCCN(C(=O)N2CCC(CCCN3CCN(c4ccc5c(c4)CN(C4CCC(=O)NC4=O)C5=O)CC3)CC2)C1` (stereo partly drawn) [Compound 106, 3-(5-(4-(3-(1-((R)-3-(4-amino-3-(4-phenoxyphenyl)-1H-pyrazolo[3,4-d]pyrimidin-1-yl)piperidine-1-carbonyl)piperidin-4-yl)propyl)piperazin-1-yl)-1-oxoisoindolin-2-yl)piperidine-2,6-dione], the IC50 with Mino cells is above 10000 nM. For the same molecule, the IC50 in the test on JeKo-1 cells is above 10000 nM. On BTK, this molecule returned a Dmax above 75% and a DC50 above 50 nM.

Consider `Nc1ncnc2c1c(-c1ccc(Oc3ccccc3)cc1)nn2[C@@H]1CCCN(C(=O)N2CCN(CCCN3CCN(c4ccc5c(c4)C(=O)N(C4CCC(=O)NC4=O)C5=O)CC3)CC2)C1` (stereo partly drawn) [Compound 107, 5-(4-(3-(4-((R)-3-(4-amino-3-(4-phenoxyphenyl)-1H-pyrazolo[3,4-d]pyrimidin-1-yl)piperidine-1-carbonyl)piperazin-1-yl)propyl)piperazin-1-yl)-2-(2,6-dioxopiperidin-3-yl)isoindoline-1,3-dione], for which the IC50 in the test on Mino cells is 1000 to 10000 nM. The IC50 in the test with JeKo-1 cells is above 10000 nM. Further, at BTK, the Dmax was above 75% and the DC50 is above 50 nM.

Take `Nc1ncnc2c1c(-c1ccc(Oc3ccccc3)cc1)nn2[C@@H]1CCCN(C(=O)N2CCN(CCCN3CCN(c4ccc5c(c4)CN(C4CCC(=O)NC4=O)C5=O)CC3)CC2)C1` (stereo partly drawn) [Compound 108, 3-(5-(4-(3-(4-((R)-3-(4-amino-3-(4-phenoxyphenyl)-1H-pyrazolo[3,4-d]pyrimidin-1-yl)piperidine-1-carbonyl)piperazin-1-yl)propyl)piperazin-1-yl)-1-oxoisoindolin-2-yl)piperidine-2,6-dione]: the IC50 in the test on Mino cells was in the range of 1000 to 10000 nM. Also, the IC50 with JeKo-1 cells lay in the range of 1000 to 10000 nM. On BTK, this molecule returned a Dmax above 75% and a DC50 above 50 nM.

Consider `Nc1ncnc2c1c(-c1ccc(Oc3ccccc3)cc1)nn2[C@@H]1CCCN(C(=O)N2CCN(CCCC3CCN(c4ccc5c(c4)C(=O)N(C4CCC(=O)NC4=O)C5=O)CC3)CC2)C1` (stereo partly drawn) [Compound 109, 5-(4-(3-(4-((R)-3-(4-amino-3-(4-phenoxyphenyl)-1H-pyrazolo[3,4-d]pyrimidin-1-yl)piperidine-1-carbonyl)piperazin-1-yl)propyl)piperidin-1-yl)-2-(2,6-dioxopiperidin-3-yl)isoindoline-1,3-dione], for which the IC50 in the test on Mino cells and with JeKo-1 cells was above 10000 nM each time. Moreover, at BTK, the Dmax is above 75%. On BTK, this molecule gave a DC50 above 50 nM.

Take `Nc1ncnc2c1c(-c1ccc(Oc3ccccc3)cc1)nn2[C@@H]1CCCN(C(=O)N2CCN(CCCC3CCN(c4ccc5c(c4)CN(C4CCC(=O)NC4=O)C5=O)CC3)CC2)C1` (stereo partly drawn) [Compound 110, 3-(5-(4-(3-(4-((R)-3-(4-amino-3-(4-phenoxyphenyl)-1H-pyrazolo[3,4-d]pyrimidin-1-yl)piperidine-1-carbonyl)piperazin-1-yl)propyl)piperidin-1-yl)-1-oxoisoindolin-2-yl)piperidine-2,6-dione]: the IC50 in the test on Mino cells and in the test on JeKo-1 cells was above 10000 nM each time. For the same molecule, the Dmax at BTK is above 75%. The molecule also registered a DC50 at BTK above 50 nM.

Consider `Nc1ncnc2c1c(-c1ccc(Oc3ccccc3)cc1)nn2[C@@H]1CCCN(C(=O)N2CCN(CCCN3CCC(c4ccc5c(c4)C(=O)N(C4CCC(=O)NC4=O)C5=O)CC3)CC2)C1` (stereo partly drawn) [Compound 111, 5-(1-(3-(4-((R)-3-(4-amino-3-(4-phenoxyphenyl)-1H-pyrazolo[3,4-d]pyrimidin-1-yl)piperidine-1-carbonyl)piperazin-1-yl)propyl)piperidin-4-yl)-2-(2,6-dioxopiperidin-3-yl)isoindoline-1,3-dione], for which the IC50 in the test with Mino cells fell in the range of 1000 to 10000 nM. Moreover, the IC50 with JeKo-1 cells lay in the range of 1000 to 10000 nM. Also, on BTK, the Dmax was above 75% and the DC50 is above 50 nM.

Regarding `Nc1ncnc2c1c(-c1ccc(Oc3ccccc3)cc1)nn2[C@@H]1CCCN(C(=O)N2CCN(CCCN3CCC(c4ccc5c(c4)CN(C4CCC(=O)NC4=O)C5=O)CC3)CC2)C1` (stereo partly drawn) [Compound 112, 3-(5-(1-(3-(4-((R)-3-(4-amino-3-(4-phenoxyphenyl)-1H-pyrazolo[3,4-d]pyrimidin-1-yl)piperidine-1-carbonyl)piperazin-1-yl)propyl)piperidin-4-yl)-1-oxoisoindolin-2-yl)piperidine-2,6-dione], the IC50 in the test with Mino cells was in the range of 1000 to 10000 nM. Besides, in the test on JeKo-1 cells, the IC50 is 1000 to 10000 nM. Further, at BTK, the Dmax was above 75% and the DC50 was above 50 nM.

Consider `Nc1ncnc2c1c(-c1ccc(Oc3ccccc3)cc1)nn2[C@@H]1CCCN(C(=O)N2CCC(CCCC3CCN(c4ccc5c(c4)C(=O)N(C4CCC(=O)NC4=O)C5=O)CC3)CC2)C1` (stereo partly drawn) [Compound 113, 5-(4-(3-(1-((R)-3-(4-amino-3-(4-phenoxyphenyl)-1H-pyrazolo[3,4-d]pyrimidin-1-yl)piperidine-1-carbonyl)piperidin-4-yl)propyl)piperidin-1-yl)-2-(2,6-dioxopiperidin-3-yl)isoindoline-1,3-dione], for which, in the test with Mino cells, the IC50 was in the range of 1000 to 10000 nM. The IC50 in the test on JeKo-1 cells is above 10000 nM. On BTK, this molecule yielded a Dmax above 75% and a DC50 above 50 nM.

As for `Nc1ncnc2c1c(-c1ccc(Oc3ccccc3)cc1)nn2[C@@H]1CCCN(C(=O)N2CCC(CCCC3CCN(c4ccc5c(c4)CN(C4CCC(=O)NC4=O)C5=O)CC3)CC2)C1` (stereo partly shown) [Compound 114], the IC50 in the test with Mino cells is 1000 to 10000 nM. In addition, the IC50 in the test with JeKo-1 cells was in the range of 1000 to 10000 nM. At BTK, this molecule returned a Dmax above 75% and a DC50 above 50 nM.

As for `Nc1ncnc2c1c(-c1ccc(Oc3ccccc3)cc1)nn2[C@@H]1CCCN(C(=O)N2CCC(CCCN3CCC(c4ccc5c(c4)C(=O)N(C4CCC(=O)NC4=O)C5=O)CC3)CC2)C1` (stereo partly drawn) [Compound 115, 5-(1-(3-(1-((R)-3-(4-amino-3-(4-phenoxyphenyl)-1H-pyrazolo[3,4-d]pyrimidin-1-yl)piperidine-1-carbonyl)piperidin-4-yl)propyl)piperidin-4-yl)-2-(2,6-dioxopiperidin-3-yl)isoindoline-1,3-dione], the IC50 in the test on Mino cells fell in the range of 1000 to 10000 nM. Moreover, the IC50 in the test with JeKo-1 cells is above 10000 nM. In addition, at BTK, the Dmax was above 75% and the DC50 is above 50 nM.

Take `Nc1ncnc2c1c(-c1ccc(Oc3ccccc3)cc1)nn2[C@@H]1CCCN(C(=O)N2CCC(CCCN3CCC(c4ccc5c(c4)CN(C4CCC(=O)NC4=O)C5=O)CC3)CC2)C1` (stereo partly drawn) [Compound 116, 3-(5-(1-(3-(1-((R)-3-(4-amino-3-(4-phenoxyphenyl)-1H-pyrazolo[3,4-d]pyrimidin-1-yl)piperidine-1-carbonyl)piperidin-4-yl)propyl)piperidin-4-yl)-1-oxoisoindolin-2-yl)piperidine-2,6-dione]: in the test on Mino cells, the IC50 is above 10000 nM. Moreover, the IC50 in the test with JeKo-1 cells was above 10000 nM. At BTK, this molecule displayed a Dmax above 75% and a DC50 above 50 nM.

Turning to `Nc1ncnc2c1c(-c1ccc(Oc3ccccc3)cc1)nn2C1CCN(C(=O)N2CCC(CCCN3CCN(c4ccc5c(c4)C(=O)N(C4CCC(=O)NC4=O)C5=O)CC3)CC2)CC1` (stereo not shown) [Compound 117, 5-(4-(3-(1-(4-(4-amino-3-(4-phenoxyphenyl)-1H-pyrazolo[3,4-d]pyrimidin-1-yl)piperidine-1-carbonyl)-piperidin-4-yl)propyl)piperazin-1-yl)-2-(2,6-dioxopiperidin-3-yl)isoindoline-1,3-dione], in the test on Mino cells, the IC50 lay within 1000 to 10000 nM. Also, the IC50 in the test with JeKo-1 cells lay in the range of 1000 to 10000 nM. Besides, on BTK, the Dmax was above 75% and the DC50 was above 50 nM.

Turning to `Nc1ncnc2c1c(-c1ccc(Oc3ccccc3)cc1)nn2C1CCN(C(=O)N2CCC(CCCN3CCN(c4ccc5c(c4)CN(C4CCC(=O)NC4=O)C5=O)CC3)CC2)CC1` (stereo not shown) [Compound 118, 3-(5-(4-(3-(1-(4-(4-amino-3-(4-phenoxyphenyl)-1H-pyrazolo[3,4-d]pyrimidin-1-yl)piperidine-1-carbonyl)piperidin-4-yl)propyl)piperazin-1-yl)-1-oxoisoindolin-2-yl)piperidine-2,6-dione], the IC50 in the test on Mino cells was above 10000 nM. Moreover, the IC50 in the test with JeKo-1 cells was in the range of 1000 to 10000 nM. For the same molecule, on BTK, the Dmax was above 75% and the DC50 was above 50 nM.

For the molecule `Nc1ncnc2c1c(-c1ccc(Oc3ccccc3)cc1)nn2C1CCN(C(=O)N2CCN(CCCN3CCN(c4ccc5c(c4)C(=O)N(C4CCC(=O)NC4=O)C5=O)CC3)CC2)CC1` (stereo not shown) [Compound 119, 5-(4-(3-(4-(4-(4-amino-3-(4-phenoxyphenyl)-1H-pyrazolo[3,4-d]pyrimidin-1-yl)piperidine-1-carbonyl)piperazin-1-yl)propyl)piperazin-1-yl)-2-(2,6-dioxopiperidin-3-yl)isoindoline-1,3-dione], the IC50 in the test on Mino cells is 1000 to 10000 nM; in the test with JeKo-1 cells, above 10000 nM. Also, the Dmax on BTK is above 75%. In addition, the DC50 on BTK was above 50 nM.

For `Nc1ncnc2c1c(-c1ccc(Oc3ccccc3)cc1)nn2C1CCN(C(=O)N2CCN(CCCN3CCN(c4ccc5c(c4)CN(C4CCC(=O)NC4=O)C5=O)CC3)CC2)CC1` (stereo not shown) [Compound 120, 3-(5-(4-(3-(4-(4-(4-amino-3-(4-phenoxyphenyl)-1H-pyrazolo[3,4-d]pyrimidin-1-yl)piperidine-1-carbonyl)piperazin-1-yl)propyl)piperazin-1-yl)-1-oxoisoindolin-2-yl)piperidine-2,6-dione], the IC50 with Mino cells was above 10000 nM. Besides, the IC50 in the test on JeKo-1 cells is above 10000 nM. Further, at BTK, the Dmax is above 75% and the DC50 is above 50 nM.

With `Nc1ncnc2c1c(-c1ccc(Oc3ccccc3)cc1)nn2C1CCN(C(=O)N2CCN(CCCC3CCN(c4ccc5c(c4)C(=O)N(C4CCC(=O)NC4=O)C5=O)CC3)CC2)CC1` (stereo not shown) [Compound 121, 5-(4-(3-(4-(4-(4-amino-3-(4-phenoxyphenyl)-1H-pyrzolo[3,4-d]pyrimidin-1-yl)piperidine-1-carbonyl)piperazin-1-yl)propyl)piperidin-1-yl)-2-(2,6-dioxopiperidin-3-yl)isoindoline-1,3-dione], the IC50 in the test with Mino cells lay within 1000 to 10000 nM. Further, the IC50 in the test with JeKo-1 cells was 1000 to 10000 nM. In addition, at BTK, the Dmax is above 75% and the DC50 is above 50 nM.

A word on the Dmax: it is the largest share of the target that was removed. High values mean deep degradation, low ones shallow degradation. Broadly, the DC50 is the concentration at which degradation of the target reaches its halfway point. Low readings indicate degradation at low concentration, high ones degradation only at high concentration.
